Data on 32 compounds can be found in US11485731B2, “Compounds and methods useful in the treatment of a PRMT5-mediated disorder” (ARGONAUT THERAPEUTICS LIMITED, priority 2017, dated 2022).

Structures are written as SMILES.

In the test the target is human PRMT5/MEP50 (Homo sapiens (Human), UniProt O14744). Description: PRMT5 chemiluminescent assay. The note with it: human PRMT5/MEP50 expressed in HEK293 cells; biotinylated histone peptides; Histone H4 monomethyl R3 antibody; chemiluminescent readout. The class given is biochemical. The method, then: A PRMT5 chemiluminescent assay was used to measure the IC50 activity of PRMT5 of the compounds of Examples 1A to 7 above. Biotinylated histone peptides were synthesized and attached to 384-well plates. Compound serial dilutions were performed and added to the assay plate. Histone H4 monomethyl R3 antibody was obtained from Abcam. A master mix for each well was prepared and human PRMT5/MEP50 (expressed in HEK293 cells) diluted in assay buffer to a concentration of 5 ng/μL. The reaction was incubated and slowly rotated for 60 minutes at the point of PRMT5/MEP50 addition. The supernatant from the wells was removed and blocking buffer was added to each well and rotated for 10 minutes. The primary antibody was diluted and added to every well for 60 minutes, before it was removed and the wells washed. The horse raddish peroxidase (HRP)-coupled secondary antibody was diluted and added to each well with an incubation time of 30 minutes. The HRP chemiluminescent substrate was added to every well. The plate was read on a Flourstar Omega BMG Labtech instrument (Ortenberg, Germany) and the analysis of IC50 was performed using the Flourstar Omega BMG Labtech software.
human PRMT5/MEP50, sequence (O14744 whole entry): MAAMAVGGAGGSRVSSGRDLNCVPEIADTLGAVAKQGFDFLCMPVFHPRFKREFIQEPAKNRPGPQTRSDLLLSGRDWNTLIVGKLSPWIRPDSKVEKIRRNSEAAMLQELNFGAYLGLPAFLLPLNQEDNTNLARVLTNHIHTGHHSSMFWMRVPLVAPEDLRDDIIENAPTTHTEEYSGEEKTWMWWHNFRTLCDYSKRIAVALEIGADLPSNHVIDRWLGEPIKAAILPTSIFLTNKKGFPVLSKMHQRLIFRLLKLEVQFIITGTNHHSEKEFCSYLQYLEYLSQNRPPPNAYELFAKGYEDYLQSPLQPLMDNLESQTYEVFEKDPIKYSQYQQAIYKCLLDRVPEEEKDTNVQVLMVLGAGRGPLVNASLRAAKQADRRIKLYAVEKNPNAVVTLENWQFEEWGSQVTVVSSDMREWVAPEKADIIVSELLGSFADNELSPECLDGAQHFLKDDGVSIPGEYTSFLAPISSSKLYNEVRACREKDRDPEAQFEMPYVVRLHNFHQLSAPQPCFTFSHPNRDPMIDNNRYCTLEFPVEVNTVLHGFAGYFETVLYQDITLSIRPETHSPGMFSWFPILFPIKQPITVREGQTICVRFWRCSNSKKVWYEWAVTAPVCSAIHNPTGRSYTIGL
human PRMT5/MEP50, sequence (Q9BQA1 whole entry partner): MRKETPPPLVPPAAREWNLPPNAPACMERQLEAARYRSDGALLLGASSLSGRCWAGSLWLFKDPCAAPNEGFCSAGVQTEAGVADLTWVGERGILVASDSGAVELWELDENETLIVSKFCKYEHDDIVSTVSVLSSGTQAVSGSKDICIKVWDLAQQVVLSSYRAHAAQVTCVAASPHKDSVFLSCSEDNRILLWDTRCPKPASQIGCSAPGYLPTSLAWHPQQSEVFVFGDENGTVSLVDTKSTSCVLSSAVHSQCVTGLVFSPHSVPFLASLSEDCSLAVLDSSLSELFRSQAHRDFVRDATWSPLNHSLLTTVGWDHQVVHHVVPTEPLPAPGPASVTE
The IC50 is the concentration at which inhibition is half-maximal. As for `O=C(NC[C@H](O)CN1CCc2ccccc2C1)N1CCSC(c2ccccc2)C1` (stereo partly drawn) [Example 1BJ, N-((S)-3-(3,4-dihydroisoquinolin-2(1H)-yl)-2-hydroxypropyl)-2-phenylthiomorpholine-4-carboxamide], the IC50 came to 108 nM.
Compound `O=C(OC[C@@H](O)CN1CCc2ccccc2C1)N1CCC(C(=O)N2C3CCC2COC3)CC1` [Example 4X, (S)-3-(3,4-dihydroisoquinolin-2(1H)-yl)-2-hydroxypropyl 4-(3-oxa-8-azabicyclo[3.2.1]octane-8-carbonyl)piperidine-1-carboxylate] yielded an IC50 of 809 nM.
The compound `O=C(NCC(O)CN1CCc2ccccc2C1)N1CCC(Oc2ccccc2)CC1` (centres unmarked) [Example 1G, N-[2-hydroxy-3-(1,2,3,4-tetrahydroisoquinolin-2-yl)propyl]-4-phenoxypiperidine-1-carboxamide] gave an IC50 of 568 nM.
With `O=C(OCC(O)CN1CCc2ccsc2C1)N1CCCC(c2ccccc2)C1` (centres unmarked) [Example 4AD, 3-(4,7-dihydrothieno[2,3-c]pyridin-6(5H)-yl)-2-hydroxypropyl 3-phenylpiperidine-1-carboxylate], the midpoint of inhibition, the IC50, lay at 223 nM.
Then `O=C(OCC(O)CN1CCc2sccc2C1)N1CCC(c2ccccc2)C1` (centres unmarked) [Example 4AE, 3-(6,7-dihydrothieno[3,2-c]pyridin-5(4H)-yl)-2-hydroxypropyl 3-phenylpyrrolidine-1-carboxylate], with 41 nM.
`O=C(NC[C@@H](O)CN1CCc2ccccc2C1)N1CCC[C@@H](c2ccccc2)C1` [Example 1AI, (S)-N-((R)-3-(3,4-dihydroisoquinolin-2(1H)-yl)-2-hydroxypropyl)-3-phenylpiperidine-1-carboxamide] showed a 50% inhibitory concentration (IC50) of 3220 nM. This IC50 lies about 79-fold higher than the previous one.
Regarding `O=C(NC[C@@H](O)CN1CCc2ccccc2C1)N1CCCc2ccccc21` [Example 1AK, (R)-N-(3-(3,4-dihydroisoquinolin-2(1H)-yl)-2-hydroxypropyl)-3,4-dihydroquinoline-1(2H)-carboxamide], inhibition was half-maximal at 5980 nM (IC50).
`O=C(NC[C@H](O)CN1CCc2ccccc2C1)N1CCCC(N2CCN(Cc3ccccc3)CC2)C1` (stereo partly drawn) [Example 1CH, 3-(4-benzylpiperazin-1-yl)-N-((S)-3-(3,4-dihydroisoquinolin-2(1H)-yl)-2-hydroxypropyl)piperidine-1-carboxamide]: the IC50 was 1920 nM.
In the case of `O=C(NCC(O)CN1CCc2ccccc2C1)N1CCCC(c2ccccc2)CC1` (centres unmarked) [Example 1CN, N-(3-(3,4-dihydroisoquinolin-2(1H)-yl)-2-hydroxypropyl)-4-phenylazepane-1-carboxamide], the IC50 was 1100 nM.
As to `O=C(NC[C@H](O)CN1CCc2ccccc2C1)N1CCCC(c2cnccn2)C1` (stereo partly drawn) [Example 1BS, N-((S)-3-(3,4-dihydroisoquinolin-2(1H)-yl)-2-hydroxypropyl)-3-(pyrazin-2-yl)piperidine-1-carboxamide], inhibition was half-maximal at 237 nM (IC50).
As to `O=C(OCC(O)CN1CCc2ccccc2C1)N1CCS(=O)(=O)CC1` (centres unmarked) [Example 4N, 3-(3,4-dihydroisoquinolin-2(1H)-yl)-2-hydroxypropyl thiomorpholine-4-carboxylate 1,1-dioxide], half-maximal inhibition (IC50) was put at 213000 nM. Compared with the last compound, the IC50 is about 900-fold higher.
Turning to `O=C(NCC(O)CN1CCc2ccccc2C1)N1CCc2ccccc21` (centres unmarked) [Example 2B, N-[2-hydroxy-3-(1,2,3,4-tetrahydroisoquinolin-2-yl)propyl]-2,3-dihydro-1H-indole-1-carboxamide], the midpoint of inhibition, the IC50, lay at 8500 nM.
Compound `O=C(NC[C@H](O)CN1CCc2ccccc2C1)N1CCC[C@@H](c2ccccc2)C1` (single isomer, unassigned) [Example 5A, (S)-N-((S)-3-(3,4-dihydroisoquinolin-2(1H)-yl)-2-hydroxypropyl)-3-phenylpiperidine-1-carboxamide or (R)-N-((S)-3-(3,4-dihydroisoquinolin-2(1H)-yl)-2-hydroxypropyl)-3-phenylpiperidine-1-carboxamide] displayed an IC50 of 26 nM.
Then `O=C(NCC(O)CN1CCc2ccccc2C1)N1CCCC1` (centres unmarked) [Example 1M, N-[2-hydroxy-3-(1,2,3,4-tetrahydroisoquinolin-2-yl)propyl]pyrrolidine-1-carboxamide], with 6870 nM; and `O=C(NCC(O)CN1CCc2ccccc2C1)N1CCC(c2ccccc2)CC1` (centres unmarked) [Example 1F, N-[2-hydroxy-3-(1,2,3,4-tetrahydroisoquinolin-2-yl)propyl]-4-phenylpiperidine-1-carboxamide], with 457 nM; and `O=C(OCC(O)CN1CCc2ccsc2C1)N1CCc2ccccc2C1` (centres unmarked) [Example 4AB, 3-(4,7-dihydrothieno[2,3-c]pyridin-6(5H)-yl)-2-hydroxypropyl 3,4-dihydroisoquinoline-2(1H)-carboxylate], with 1010 nM.
In turn, `O=C(NCCCN1CCc2ccccc2C1)N1CCC(c2ccccc2)C1` (centres unmarked) [Example 6A, N-(3-(3,4-dihydroisoquinolin-2(1H)-yl)propyl)-3-phenyl pyrrolidine-1-carboxamide] returned an IC50 of 939 nM.
As for `O=C(OCC(O)CN1CCc2sccc2C1)N1CCCc2ccccc21` (centres unmarked) [Example 4Y, 3-(6,7-dihydrothieno[3,2-c]pyridin-5(4H)-yl)-2-hydroxypropyl 3,4-dihydroquinoline-1(2H)-carboxylate], the IC50 came to 1460 nM.
For the compound `O=C(NC[C@H](O)CN1CCc2ccccc2C1)N1CCCSCC1` [Example 1AT, (S)-N-(3-(3,4-dihydroisoquinolin-2(1H)-yl)-2-hydroxypropyl)-1,4-thiazepane-4-carboxamide], the IC50 came out at 691 nM.
In turn, `O=C(NCC(O)CN1CCc2ccccc2C1)N1CCc2ccccc2C1` (centres unmarked) [Example 1I, N-[2-hydroxy-3-(1,2,3,4-tetrahydroisoquinolin-2-yl)propyl]-1,2,3,4-tetrahydroisoquinoline-2-carboxamide] returned an IC50 of 208 nM.
`O=C(NCC(O)CN1CCc2ccccc2C1)N1CCCN(c2ccccc2)CC1` (centres unmarked) [Example 1S, N-(3-(3,4-dihydroisoquinolin-2(1H)-yl)-2-hydroxypropyl)-4-phenyl-1,4-diazepane-1-carboxamide] came in with an IC50 of 95 nM.
In turn, `O=C(NC[C@H](O)CN1CCc2ccccc2C1)N1CCCC(c2cccnc2)C1` (stereo partly drawn) [Example 1BV, N-((S)-3-(3,4-dihydroisoquinolin-2(1H)-yl)-2-hydroxypropyl)-3-(pyridin-3-yl)piperidine-1-carboxamide] had an IC50 of 57 nM.
Take `O=C(NC[C@H](O)CN1CCc2ccccc2C1)N1CCC[C@H](C2CCOCC2)C1` (single isomer, unassigned) [Example 5H, (R)-N-((S)-3-(3,4-dihydroisoquinolin-2(1H)-yl)-2-hydroxypropyl)-3-(tetrahydro-2H-pyran-4-yl)piperidine-1-carboxamide compound or (S)-N-((S)-3-(3,4-dihydroisoquinolin-2(1H)-yl)-2-hydroxypropyl)-3-(tetrahydro-2H-pyran-4-yl)piperidine-1-carboxamide]: half-maximal inhibition (IC50) required 511 nM. This IC50 lies about 9-fold higher than the previous one.
`O=C(NC[C@H](O)CN1CCc2ccccc2C1)N1CCC[C@@H](c2ccccc2)C1` [Example 1AN, (S)-N-((S)-3-(3,4-dihydroisoquinolin-2(1H)-yl)-2-hydroxypropyl)-3-phenylpiperidine-1-carboxamide] returned a concentration for half-maximal inhibition (IC50) of 14 nM.
Regarding `O=C(OC[C@H](O)CN1CCc2ccccc2C1)N1CCC(C(=O)N2C3CCC2COC3)CC1` [Example 4Q, (R)-3-(3,4-dihydroisoquinolin-2(1H)-yl)-2-hydroxypropyl 4-(3-oxa-8-azabicyclo[3.2.1]octane-8-carbonyl)piperidine-1-carboxylate], half-maximal inhibition (IC50) was put at 160 nM.
Turning to `O=C(NC[C@@H](O)CN1CCc2ccccc2C1)N1CCc2ccccc2C1` [Example 1AM, (R)-N-(3-(3,4-dihydroisoquinolin-2(1H)-yl)-2-hydroxypropyl)-3,4-dihydroisoquinoline-2(1H)-carboxamide], the IC50 stood at 1500 nM. This IC50 is about 9.4-fold higher than that of the compound before.
Regarding `CN1CCCN(C(=O)OCC(O)CN2CCc3ccccc3C2)CC1` (centres unmarked) [Example 4J, 3-(3,4-dihydroisoquinolin-2(1H)-yl)-2-hydroxypropyl 4-methyl-1,4-diazepane-1-carboxylate], inhibition was half-maximal at 246 nM (IC50). This IC50 lies about 6.1-fold lower than the previous one.
To `O=C(NC[C@H](O)CN1CCc2ccccc2C1)N1CCC(N2CCCSCC2)C1` (stereo partly drawn) [Example 1CF, N-((S)-3-(3,4-dihydroisoquinolin-2(1H)-yl)-2-hydroxypropyl)-3-(1,4-thiazepan-4-yl)pyrrolidine-1-carboxamide] belongs 376 nM.
In the case of `O=C(NC[C@H](O)CN1CCc2ccccc2C1)N1CC[C@H](c2ccccc2)C1` [Example 1CJ, (R)-N-((S)-3-(3,4-dihydroisoquinolin-2(1H)-yl)-2-hydroxypropyl)-3-phenylpyrrolidine-1-carboxamide], 58 nM corresponded to half-maximal inhibition (IC50).
As for `O=C(NC[C@H](O)CN1CCc2ccccc2C1)N1CCCC(O)(c2ccccc2)C1` (stereo partly drawn) [Example 1BH, N-((S)-3-(3,4-dihydroisoquinolin-2(1H)-yl)-2-hydroxypropyl)-3-hydroxy-3-phenylpiperidine-1-carboxamide], it took 167 nM to reach half-maximal inhibition (IC50). This IC50 is about 2.9-fold higher than that of the compound before.
Then `O=C(OCC(O)CN1CCc2ccccc2C1)N1CCSCC1` (centres unmarked) [Example 4A, 3-(3,4-dihydroisoquinolin-2(1H)-yl)-2-hydroxypropyl thiomorpholine-4-carboxylate], with 477 nM; and `CN(C)C(=O)C1CN(C(=O)NCC(O)CN2CCc3ccccc3C2)C1` (centres unmarked) [Example 1V, N^1-(3-(3,4-dihydroisoquinolin-2(1H)-yl)-2-hydroxypropyl)-N^3,N^3-dimethylazetidine-1,3-dicarboxamide], with 8540 nM.
